Measurements from ChEMBL document CHEMBL3862002, “Wortmannilactones I-L, new NADH-fumarate reductase inhibitors, induced by adding suberoylanilide hydroxamic acid to the culture medium of Talaromyces wortmannii” (Bioorg Med Chem Lett, 2016).

Assays:
Fumarate reductase = target: T1, Fumarate reductase (Ascaris suum, UniProt F1KRD8); test: Inhibition of NADH-Fumarate reductase in Ascaris suum muscle sub-mitochondrial particles using disodium fumarate as substrate in presence of NADH after 3 mins measured every 15 sec for 10 mins under anaerobic condition
T1 sequence (F1KRD8 whole entry): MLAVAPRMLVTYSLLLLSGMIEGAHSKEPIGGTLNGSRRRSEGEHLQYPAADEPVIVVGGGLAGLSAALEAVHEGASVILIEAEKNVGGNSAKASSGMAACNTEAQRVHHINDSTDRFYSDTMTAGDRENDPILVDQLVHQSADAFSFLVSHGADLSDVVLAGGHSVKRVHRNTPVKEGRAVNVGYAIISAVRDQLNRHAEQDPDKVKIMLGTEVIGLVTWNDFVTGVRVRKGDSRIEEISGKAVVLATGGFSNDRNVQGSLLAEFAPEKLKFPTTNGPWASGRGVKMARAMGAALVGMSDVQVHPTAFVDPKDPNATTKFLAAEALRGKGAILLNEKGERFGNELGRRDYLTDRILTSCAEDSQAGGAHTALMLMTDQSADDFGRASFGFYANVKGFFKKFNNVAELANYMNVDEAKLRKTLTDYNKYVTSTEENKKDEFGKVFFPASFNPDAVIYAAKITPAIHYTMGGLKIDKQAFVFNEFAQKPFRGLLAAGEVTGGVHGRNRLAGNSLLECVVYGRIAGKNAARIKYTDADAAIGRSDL

[1] = Inhibition of NADH oxidase in pig heart sub-mitochondrial particles using NADH as substrate after 3 mins measured every 15 sec for 10 mins under aerobic condition; design: species or system Sus scrofa

SMILES | IC50 (Fumarate reductase) [µM] | IC50 [1] [µM]
CC1=C[C@@](C)(O)[C@@H](C)O[C@@H]1/C(C)=C/C=C/C=C/C=C/C(C)=C/[C@]1(C)[C@H]2OC(=O)[C@]1(C)C(=O)[C@@H]2C | 0.47 | 
CC1=C[C@@](C)(O)[C@@H](C)O[C@H]1/C(C)=C/C=C/C=C/C=C/C(C)=C/[C@]1(C)[C@H]2OC(=O)[C@]1(C)C(=O)[C@@H]2C | 0.0024 | 
CO[C@]1(C)C=C(C)[C@H](/C(C)=C/C=C/C=C/C=C/[C@]2(C)[C@H]3OC(=O)[C@]2(C)C(=O)[C@@H]3C)O[C@H]1C | 1.35 | 145
C=C1C=C(C)[C@H](/C(C)=C/C=C/C=C/C=C/[C@]2(C)[C@H]3OC(=O)[C@]2(C)C(=O)[C@@H]3C)O[C@H]1C | 0.84 | 35
Cc1cc(/C=C/c2ccc3cc(N(C)C)ccc3[n+]2C)c(C)n1-c1ccccc1 [PYRVINIUM PAMOATE] | 0.5 | 
CO[C@@]1(C)C=C(C)[C@H](/C(C)=C/C=C/C=C/C=C/[C@]2(C)[C@H]3OC(=O)[C@]2(C)C(=O)[C@@H]3C)O[C@H]1C | 0.84 | 100
CC1=C[C@](C)(O)[C@H](/C(C)=C/C=C/C=C/C=C/[C@]2(C)[C@H]3OC(=O)[C@]2(C)C(=O)[C@@H]3C)O[C@H]1C | 0.85 | 56
